From patent US20030225527A1, “Crystals and structures of MST3” (priority 2002, published 2003) come the findings set out here.

For this experiment, the target named is T1, MST3 kinase domain (Homo sapiens, UniProt Q9Y6E0).
T1 construct: 5 μg/ml MST3 kinase domain; Met-Ser-Leu (vector-encoded residues) (N); Glu-Gly-His6 (C); made in house; host or cells: E. coli
Put plainly: MST3 kinase assay (PK/LDH-coupled, loss of NADH at 340 nm). It counts as biochemical. Particulars: purified MST3 kinase domain 5 μg/ml, 10 μM ATP, 400 μM MST3 peptide, 1 mM MnCl2.

Structures can show the parent of a compound that is named as a salt.

T1 sequence (Q9Y6E0 36-286 limits assumed): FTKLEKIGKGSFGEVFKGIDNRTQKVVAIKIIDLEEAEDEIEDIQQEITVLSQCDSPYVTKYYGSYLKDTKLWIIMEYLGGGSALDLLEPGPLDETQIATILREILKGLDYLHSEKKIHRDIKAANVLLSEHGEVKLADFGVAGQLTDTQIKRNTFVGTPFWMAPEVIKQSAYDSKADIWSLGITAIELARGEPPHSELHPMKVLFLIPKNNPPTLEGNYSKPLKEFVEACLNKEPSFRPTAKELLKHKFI

As to `O=S(=O)(NCCNCC=Cc1ccc(Br)cc1)c1cccc2cnccc12` [H89, N-[2-(p-Bromocinnamylamino)ethyl]-5-isoquinolinesulfonamide.2HCl], the IC50 stood at 30 µM.

With `O=S(=O)(c1cccc2c(Cl)cccc12)N1CCCNCC1` [ML-9, 1-(5-Chloronaphthalene-1-sulfonyl)-1H-hexahydro-1,4-diazepine.HCl], the 50% inhibitory concentration (IC50) was 18 µM.

Usually IC50 stands for the concentration needed to halve the response being measured.
